According to patent US10829488B2, “N-(phenylsulfonyl)benzamides and related compounds as bcl-2 inhibitors” (THE REGENTS OF THE UNIVERSITY OF MICHIGAN, priority 2016, dated 2020):
Where two headings read alike, the source gives them in different places.

Tests used:
Pharmacokinetics in rats = conditions: rat, in vivo
Method: The pharmacokinetics of ABT-199 and representative Compounds of the Disclosure were evaluated in rats at an IV dose of 2 mg/kg and an oral dose of 20 mg/kg.

[1] = tested on: RS4;11 leukemia xenograft; assay: Antitumor activity in RS4;11 leukemia xenograft model; type: in vivo; conditions: nude mice, oral gavage, treatment started day 11, FIG. 3
Method: (§1) The antitumor activity of Cpd. No. 6 (compound 6) was also studied in the RS4;11 leukemia xenograft model. Human RS4;11 tumor cells were injected into nude mice and treatment started on day 11 when the tumor size reached approximately 100 mm^3. Cpd. No. 6 was administered via oral gavage at indicated doses and schedules. Cpd.

[2] = Mouse weight in RS4;11 leukemia xenograft model; type: in vivo; conditions: nude mice, oral gavage, FIG. 4
Method: as §1

[3] = IV 2 mg/kg, read-out: AUC0-∞ (ng · h/mL) IV
[4] = oral 20 mg/kg, read-out: AUC0-∞ (ng · h/mL) PO

Row | AUC(0-inf) (Pharmacokinetics in rats; [3]) | AUC(0-inf) (Pharmacokinetics in rats; [4]) | SMILES | Antitumor activity (tumor growth) [1] | Mouse weight [2]
1 | 5450 ng·h/mL | 20800 ng·h/mL | CC1(C)CCC(CN2CCN(c3ccc(C(=O)NS(=O)(=O)c4ccc(NCC5CCOCC5)c([N+](=O)[O-])c4)c(Oc4cnc5[nH]ccc5c4)c3)CC2)=C(c2ccc(Cl)cc2)C1 [ABT-199, Venetoclax, reference compound] | – | –
2 | 2680 ng·h/mL | 7780 ng·h/mL | O=C(NS(=O)(=O)c1ccc(NCC2CCOCC2)c([N+](=O)[O-])c1)c1ccc(N2CCN(CC3=C(c4ccc(Cl)cc4)CC4(CCC4)CC3)CC2)cc1Oc1cnc2[nH]ccc2c1 [Cpd. No. 3, 2-((1H-pyrrolo[2,3-b]pyridin-5-yl)oxy)-4-(4-((6-(4-chlorophenyl)spiro[3.5]non-6-en-7-yl)methyl)piperazin-1-yl)-N-((3-nitro-4-(((tetrahydro-2H-pyran-4-yl)methyl)amino)phenyl)sulfonyl)benzamide] | – | –

Row | SMILES | AUC(0-inf) (Pharmacokinetics in rats; [3]) | AUC(0-inf) (Pharmacokinetics in rats; [4]) | Antitumor activity (tumor growth) [1] | Mouse weight [2]
3 | O=C(NS(=O)(=O)c1ccc(NC[C@H]2COCCO2)c([N+](=O)[O-])c1)c1ccc(N2CCN(CC3=C(c4ccc(Cl)cc4)CC4(CCC4)CC3)CC2)cc1Oc1cnc2[nH]ccc2c1 [Cpd. No. 6, (S)-N-((4-(((1,4-dioxan-2-yl)methyl)amino)-3-nitrophenyl)sulfonyl)-2-((1H-pyrrolo[2,3-b]pyridin-5-yl)oxy)-4-(4-((6-(4-chlorophenyl)spiro[3.5]non-6-en-7-yl)methyl)piperazin-1-yl)benzamide] | 2920 ng·h/mL | 13500 ng·h/mL | inhibits tumor growth | does not cause weight loss
